The target of assay [1] is Voltage-gated inwardly rectifying potassium channel KCNH2 (Homo sapiens, UniProt Q12809). Briefly: hERG protection from proarrhythmic block, potency, dose response, cell-based, thallium flux (AID 2121). The class given is ADME.
Assay [2] concerns the target Peroxisome proliferator-activated receptor gamma/Nuclear receptor corepressor 2 (Homo sapiens, UniProt P37231+Q9Y618). Briefly: Counterscreen for NR2E3 inverse agonists: TR-FRET-based biochemical high throughput dose response assay to identify inverse agonists of the interaction between peroxisome proliferator-activated receptor gamma (PPARg) and nuclear receptor co-repressor 2 (NCOR2). The class given is functional.

In assay [3] the target is Photoreceptor-specific nuclear receptor (Homo sapiens, UniProt Q9Y5X4). Briefly: NR2E3 inverse agonists, dose response, biochemical, TR-FRET (AID 463256). The class given is functional. A general note: Time-resolved FRET reads energy transfer from a long-lived donor to a nearby acceptor.
A further assay has as its target T1, Protein RecA (Mycobacterium tuberculosis, UniProt P9WHJ3).
T1 sequence (P9WHJ3 whole entry): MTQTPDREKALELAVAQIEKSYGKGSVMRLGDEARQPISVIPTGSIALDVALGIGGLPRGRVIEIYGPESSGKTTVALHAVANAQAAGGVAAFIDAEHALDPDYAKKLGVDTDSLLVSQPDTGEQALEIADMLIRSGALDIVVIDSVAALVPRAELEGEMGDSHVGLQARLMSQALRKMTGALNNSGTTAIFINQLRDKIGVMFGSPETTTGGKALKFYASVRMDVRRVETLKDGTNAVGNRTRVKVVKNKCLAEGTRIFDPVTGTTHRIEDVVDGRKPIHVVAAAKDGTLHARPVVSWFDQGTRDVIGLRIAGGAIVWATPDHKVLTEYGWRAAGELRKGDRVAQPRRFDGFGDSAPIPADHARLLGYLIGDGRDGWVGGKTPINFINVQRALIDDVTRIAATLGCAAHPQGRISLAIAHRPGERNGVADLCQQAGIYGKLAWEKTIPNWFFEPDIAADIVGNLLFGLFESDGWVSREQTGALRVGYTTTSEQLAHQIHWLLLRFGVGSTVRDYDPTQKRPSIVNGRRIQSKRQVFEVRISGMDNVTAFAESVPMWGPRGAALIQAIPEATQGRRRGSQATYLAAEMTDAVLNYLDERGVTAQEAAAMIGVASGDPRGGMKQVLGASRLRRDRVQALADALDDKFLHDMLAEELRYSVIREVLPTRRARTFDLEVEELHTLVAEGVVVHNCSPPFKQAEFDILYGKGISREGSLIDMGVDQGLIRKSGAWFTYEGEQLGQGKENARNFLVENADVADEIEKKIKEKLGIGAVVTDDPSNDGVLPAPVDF
Briefly: Fluorescence Cell-Free Homogeneous Dose Retest to Identify Inhibitors of RecA-Intein Splicing Activity. [Related pubchem assays (depositor defined):AID2097, AID2223, AID489010, AID492950]. Type of assay: functional.

Assay [4] concerns the target Potassium voltage-gated channel subfamily KQT member 2 (Rattus norvegicus, UniProt O88943, W236L). Briefly: KCNQ2 channel potentiators, dose response, mechanism study for KCNQ2 potentiator project, cell-based, automated electrophysiology (AID 2603). The class given is functional.
The test system of the next assay is H4. Briefly: Luminescence Cell-Based Dose Response HTS to Identify Activators of 5'UTR Stem-Loop Driven Prion Protein mRNA Translation in H4 Neuroglioblastoma Cells. [Related pubchem assays: 1829 (Project Summary), 1814 (Primary HTS)]. Type of assay: functional. Particulars: Homo sapiens.
In assay [5] the target is T2, High affinity choline transporter 1 (Homo sapiens, UniProt Q9GZV3).
T2 sequence (Q9GZV3 whole entry): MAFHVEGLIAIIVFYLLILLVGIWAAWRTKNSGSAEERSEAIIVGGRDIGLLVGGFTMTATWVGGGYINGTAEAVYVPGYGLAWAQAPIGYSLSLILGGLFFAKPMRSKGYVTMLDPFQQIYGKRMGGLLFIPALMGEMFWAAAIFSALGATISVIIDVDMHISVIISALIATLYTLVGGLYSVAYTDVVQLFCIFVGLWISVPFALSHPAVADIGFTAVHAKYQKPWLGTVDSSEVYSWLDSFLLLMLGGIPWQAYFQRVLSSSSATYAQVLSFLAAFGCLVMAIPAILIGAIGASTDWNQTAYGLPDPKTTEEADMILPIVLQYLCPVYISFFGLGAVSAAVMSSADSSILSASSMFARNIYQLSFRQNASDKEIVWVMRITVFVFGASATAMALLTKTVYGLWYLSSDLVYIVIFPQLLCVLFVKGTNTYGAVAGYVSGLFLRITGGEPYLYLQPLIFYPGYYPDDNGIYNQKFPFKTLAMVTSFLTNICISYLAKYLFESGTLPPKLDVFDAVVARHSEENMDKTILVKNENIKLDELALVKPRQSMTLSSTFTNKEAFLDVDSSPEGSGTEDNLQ
Briefly: CHT inhibitors, dose response, cell-based, 10-point CRC, membrane potential dye (AID 588401).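 Note: membrane potential dye fluorescence of choline-evoked depolarization via CHT.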 The class given is functional.

Assay [6] has as its target Hepatocyte nuclear factor 4-alpha (Homo sapiens, UniProt P41235). The class given is functional, cell-based.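 Note: biochemical luminescence-based dose-response counterscreen measuring inhibition of HNF4 dimerization, run alongside a screen for blockers of ABHD5–perilipin-5 interaction; split luciferase complementation of HNF4 fusion proteins in cell lysate measuring dimerization.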
Assay [7] can be described thus: Shn3 3'UTR reporter inhibitors, dose response, cell-based, Clone20 osteoblasts, firefly luciferase, cherry-picked (AID 624132).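 Note: firefly luciferase luminescence from reporter carrying the Shn3 3'UTR in osteoblasts.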 Type of assay: functional.
Assay [8] in a line: Luminescence Cell-Based Dose Response HTS to Identify Activators of Luciferase Translation or Activity in H4 […] Cells. [Related pubchem assays: 1829 (Project Summary), 1814 (Primary HTS)]. Type of assay: functional.
Another assay addresses Genome polyprotein (dengue virus type 2, UniProt P29990). Briefly: Dengue-2 NS5 methyltransferase inhibitors, primary screen, biochemical, confirmation dose response (AID 588689). The class given is functional.
The target in assay [9] is T2, High affinity choline transporter 1. Briefly: CHT inhibitors, dose response, cell-based, 5-point CRC, membrane potential dye (AID 504840). The class given is functional.
Assay [10] in a line: control 3'UTR Renilla luciferase suppression, dose response, counter-screen for Shn3 inhibitor project, cell-based, Clone20-Shn3RL, cherry-picked (AID 624133). Type of assay: functional. Background: A counterscreen serves to expose hits that act by an unwanted route or on another target.
For the next assay, the system named is Vero. Briefly: Vero cell cytotoxicity, cytotoxicity control for flavivirus capping enzyme inhibitors (AID 588742). Type of assay: functional. To be noted: Chlorocebus sabaeus.
A short description of assay [11]: Luminescence Cell-Based Dose Confirmation HTS to Identify Activators of 5'UTR Stem-Loop Driven Alpha-Synuclein mRNA Translation in H4 Neuroglioblastoma Cells. [Related pubchem assays: 1829 (Project Summary), 1814 (Primary HTS)]. The class given is functional.
In assay [12] the target is T3, Replicative DNA helicase DnaB (Mycobacterium tuberculosis, UniProt P9WMR3).
T3 sequence (P9WMR3 whole entry): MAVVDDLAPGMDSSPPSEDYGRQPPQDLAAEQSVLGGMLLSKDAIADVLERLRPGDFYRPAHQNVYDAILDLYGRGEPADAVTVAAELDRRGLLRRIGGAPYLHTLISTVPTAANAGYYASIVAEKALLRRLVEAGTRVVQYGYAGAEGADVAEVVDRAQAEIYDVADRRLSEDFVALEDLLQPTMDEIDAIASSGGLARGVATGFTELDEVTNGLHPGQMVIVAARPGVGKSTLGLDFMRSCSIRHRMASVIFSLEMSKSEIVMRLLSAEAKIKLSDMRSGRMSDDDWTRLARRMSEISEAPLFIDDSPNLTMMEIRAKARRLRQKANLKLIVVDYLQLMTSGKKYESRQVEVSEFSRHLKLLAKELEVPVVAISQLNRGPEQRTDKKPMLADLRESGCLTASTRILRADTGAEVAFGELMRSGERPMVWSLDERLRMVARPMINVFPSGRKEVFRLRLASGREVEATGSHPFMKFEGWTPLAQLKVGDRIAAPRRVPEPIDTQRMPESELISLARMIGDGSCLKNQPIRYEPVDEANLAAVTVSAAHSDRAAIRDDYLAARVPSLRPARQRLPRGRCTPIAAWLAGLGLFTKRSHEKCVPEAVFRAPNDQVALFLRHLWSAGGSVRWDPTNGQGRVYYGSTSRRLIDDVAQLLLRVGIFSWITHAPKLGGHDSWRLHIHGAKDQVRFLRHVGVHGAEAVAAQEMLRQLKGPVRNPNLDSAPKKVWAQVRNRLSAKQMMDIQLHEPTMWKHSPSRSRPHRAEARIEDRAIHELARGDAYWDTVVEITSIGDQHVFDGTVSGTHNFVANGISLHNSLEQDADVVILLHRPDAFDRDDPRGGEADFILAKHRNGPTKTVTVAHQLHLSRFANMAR
Briefly: DnaB intein splicing inhibitors, dose response, biochemical, cell-free fluorescence (AID 449749). Type of assay: functional.

Assay [13] relates to BJ. Briefly: cells. The class given is functional, cell-based. To be noted: Homo sapiens.
The test system of assay [14] is BJ. Briefly: cytotoxicity toward BJ-TERT fibroblasts, dose response, cell-based, RAS-independent, luminescence (AID 1933). The class given is functional. Particulars: Homo sapiens.
The test system of assay [15] is BJ. Briefly: cytotoxicity toward BJ-TERT-LT-ST fibroblasts, dose response, cell-based, RAS-independent, luminescence (AID 1935).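 Note: BJ fibroblasts immortalized with TERT plus LT and ST oncogenes.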 The class given is functional. To be noted: Homo sapiens.
The nature of assay [16]: cytotoxicity toward DRD oncogenic fibroblasts, dose response, cell-based, non-viral oncogenic, luminescence (AID 1934). Type of assay: functional. Particulars: Homo sapiens.
The nature of assay [17]: Luminescence-based dose response cell-based high throughput screening assay for cytotoxic compounds using the IEC-6 intestinal epithelial cell line. [Related pubchem assays: 1858 (Summary AID.), 1825 (Counterscreen.), 1907 (Confirmation screen.)]. The class given is functional.
Assay [18] deals with Protein-tyrosine kinase 2-beta (Homo sapiens, UniProt Q14289).
The next assay addresses T4, Estrogen receptor (Homo sapiens, UniProt P03372).
T4 sequence (P03372 whole entry): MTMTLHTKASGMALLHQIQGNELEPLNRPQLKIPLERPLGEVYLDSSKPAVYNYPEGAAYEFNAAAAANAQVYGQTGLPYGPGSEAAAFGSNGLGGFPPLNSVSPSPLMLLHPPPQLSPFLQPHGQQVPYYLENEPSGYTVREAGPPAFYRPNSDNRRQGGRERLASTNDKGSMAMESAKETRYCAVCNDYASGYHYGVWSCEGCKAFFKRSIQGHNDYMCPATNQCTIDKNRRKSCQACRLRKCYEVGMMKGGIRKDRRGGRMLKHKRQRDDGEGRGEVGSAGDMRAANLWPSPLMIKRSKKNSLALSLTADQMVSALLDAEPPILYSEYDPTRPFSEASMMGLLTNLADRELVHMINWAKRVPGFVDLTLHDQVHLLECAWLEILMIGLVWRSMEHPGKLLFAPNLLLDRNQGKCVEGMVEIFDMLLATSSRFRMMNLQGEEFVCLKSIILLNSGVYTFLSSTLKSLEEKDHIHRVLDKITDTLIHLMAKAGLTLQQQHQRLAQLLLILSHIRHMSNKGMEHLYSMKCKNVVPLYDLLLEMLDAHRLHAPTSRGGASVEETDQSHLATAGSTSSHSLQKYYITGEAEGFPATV
Briefly: potentiators of ERα–SRC-1 coactivator binding, dose response, biochemical, TR-FRET, ERα LBD (AID 737).

For a further assay, the target named is Bcl-2-like protein 1 (Homo sapiens, UniProt Q07817). Briefly: BCL-XL inhibitors, dose response, selectivity assay for MCL1 inhibitor project, biochemical, fluorescence polarization, 1536-well (AID 2218). (In general: Fluorescence polarisation rises when a labelled molecule tumbles more slowly, as on binding a larger partner.)
The target in assay [19] is Induced myeloid leukemia cell differentiation protein Mcl-1 (Homo sapiens, UniProt Q07820). Briefly: MCL1-BIM BH3 interaction inhibitors, dose response, biochemical, fluorescence polarization, BIM-BH3 peptide, 1536-well (AID 2217).

Activity calls are given as the source filed them.

A word on the EC50: it is the concentration at which the effect is half-maximal. As a reminder, the IC50 is the midpoint of a concentration-inhibition curve. By AC50 is commonly meant the concentration giving half of the maximal activity seen. The CC50 is the concentration at which the toxic effect on the cells reaches its halfway point.

Bcl-2-like protein 1, sequence (Q07817 whole entry): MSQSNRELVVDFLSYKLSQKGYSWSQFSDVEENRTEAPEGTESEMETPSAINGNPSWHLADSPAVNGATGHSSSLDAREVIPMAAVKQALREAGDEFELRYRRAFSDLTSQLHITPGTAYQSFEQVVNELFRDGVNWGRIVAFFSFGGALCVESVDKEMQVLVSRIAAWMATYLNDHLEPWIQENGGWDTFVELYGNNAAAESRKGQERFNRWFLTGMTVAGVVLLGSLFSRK
Peroxisome proliferator-activated receptor gamma/Nuclear receptor corepressor 2, sequence (P37231 whole entry): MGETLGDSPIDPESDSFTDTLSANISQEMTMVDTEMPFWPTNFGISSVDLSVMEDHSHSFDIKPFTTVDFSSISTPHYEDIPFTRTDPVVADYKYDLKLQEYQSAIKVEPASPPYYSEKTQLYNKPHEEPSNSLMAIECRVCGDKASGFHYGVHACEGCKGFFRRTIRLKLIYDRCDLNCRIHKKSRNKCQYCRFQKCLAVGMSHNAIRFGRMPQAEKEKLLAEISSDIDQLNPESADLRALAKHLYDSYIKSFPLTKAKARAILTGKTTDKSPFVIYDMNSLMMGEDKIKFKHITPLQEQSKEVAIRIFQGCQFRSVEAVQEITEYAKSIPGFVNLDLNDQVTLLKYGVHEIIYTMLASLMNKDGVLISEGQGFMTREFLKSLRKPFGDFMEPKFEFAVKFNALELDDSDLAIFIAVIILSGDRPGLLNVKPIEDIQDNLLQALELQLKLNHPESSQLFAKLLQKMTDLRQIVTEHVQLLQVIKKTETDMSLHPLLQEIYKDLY
Peroxisome proliferator-activated receptor gamma/Nuclear receptor corepressor 2, sequence (Q9Y618 whole entry): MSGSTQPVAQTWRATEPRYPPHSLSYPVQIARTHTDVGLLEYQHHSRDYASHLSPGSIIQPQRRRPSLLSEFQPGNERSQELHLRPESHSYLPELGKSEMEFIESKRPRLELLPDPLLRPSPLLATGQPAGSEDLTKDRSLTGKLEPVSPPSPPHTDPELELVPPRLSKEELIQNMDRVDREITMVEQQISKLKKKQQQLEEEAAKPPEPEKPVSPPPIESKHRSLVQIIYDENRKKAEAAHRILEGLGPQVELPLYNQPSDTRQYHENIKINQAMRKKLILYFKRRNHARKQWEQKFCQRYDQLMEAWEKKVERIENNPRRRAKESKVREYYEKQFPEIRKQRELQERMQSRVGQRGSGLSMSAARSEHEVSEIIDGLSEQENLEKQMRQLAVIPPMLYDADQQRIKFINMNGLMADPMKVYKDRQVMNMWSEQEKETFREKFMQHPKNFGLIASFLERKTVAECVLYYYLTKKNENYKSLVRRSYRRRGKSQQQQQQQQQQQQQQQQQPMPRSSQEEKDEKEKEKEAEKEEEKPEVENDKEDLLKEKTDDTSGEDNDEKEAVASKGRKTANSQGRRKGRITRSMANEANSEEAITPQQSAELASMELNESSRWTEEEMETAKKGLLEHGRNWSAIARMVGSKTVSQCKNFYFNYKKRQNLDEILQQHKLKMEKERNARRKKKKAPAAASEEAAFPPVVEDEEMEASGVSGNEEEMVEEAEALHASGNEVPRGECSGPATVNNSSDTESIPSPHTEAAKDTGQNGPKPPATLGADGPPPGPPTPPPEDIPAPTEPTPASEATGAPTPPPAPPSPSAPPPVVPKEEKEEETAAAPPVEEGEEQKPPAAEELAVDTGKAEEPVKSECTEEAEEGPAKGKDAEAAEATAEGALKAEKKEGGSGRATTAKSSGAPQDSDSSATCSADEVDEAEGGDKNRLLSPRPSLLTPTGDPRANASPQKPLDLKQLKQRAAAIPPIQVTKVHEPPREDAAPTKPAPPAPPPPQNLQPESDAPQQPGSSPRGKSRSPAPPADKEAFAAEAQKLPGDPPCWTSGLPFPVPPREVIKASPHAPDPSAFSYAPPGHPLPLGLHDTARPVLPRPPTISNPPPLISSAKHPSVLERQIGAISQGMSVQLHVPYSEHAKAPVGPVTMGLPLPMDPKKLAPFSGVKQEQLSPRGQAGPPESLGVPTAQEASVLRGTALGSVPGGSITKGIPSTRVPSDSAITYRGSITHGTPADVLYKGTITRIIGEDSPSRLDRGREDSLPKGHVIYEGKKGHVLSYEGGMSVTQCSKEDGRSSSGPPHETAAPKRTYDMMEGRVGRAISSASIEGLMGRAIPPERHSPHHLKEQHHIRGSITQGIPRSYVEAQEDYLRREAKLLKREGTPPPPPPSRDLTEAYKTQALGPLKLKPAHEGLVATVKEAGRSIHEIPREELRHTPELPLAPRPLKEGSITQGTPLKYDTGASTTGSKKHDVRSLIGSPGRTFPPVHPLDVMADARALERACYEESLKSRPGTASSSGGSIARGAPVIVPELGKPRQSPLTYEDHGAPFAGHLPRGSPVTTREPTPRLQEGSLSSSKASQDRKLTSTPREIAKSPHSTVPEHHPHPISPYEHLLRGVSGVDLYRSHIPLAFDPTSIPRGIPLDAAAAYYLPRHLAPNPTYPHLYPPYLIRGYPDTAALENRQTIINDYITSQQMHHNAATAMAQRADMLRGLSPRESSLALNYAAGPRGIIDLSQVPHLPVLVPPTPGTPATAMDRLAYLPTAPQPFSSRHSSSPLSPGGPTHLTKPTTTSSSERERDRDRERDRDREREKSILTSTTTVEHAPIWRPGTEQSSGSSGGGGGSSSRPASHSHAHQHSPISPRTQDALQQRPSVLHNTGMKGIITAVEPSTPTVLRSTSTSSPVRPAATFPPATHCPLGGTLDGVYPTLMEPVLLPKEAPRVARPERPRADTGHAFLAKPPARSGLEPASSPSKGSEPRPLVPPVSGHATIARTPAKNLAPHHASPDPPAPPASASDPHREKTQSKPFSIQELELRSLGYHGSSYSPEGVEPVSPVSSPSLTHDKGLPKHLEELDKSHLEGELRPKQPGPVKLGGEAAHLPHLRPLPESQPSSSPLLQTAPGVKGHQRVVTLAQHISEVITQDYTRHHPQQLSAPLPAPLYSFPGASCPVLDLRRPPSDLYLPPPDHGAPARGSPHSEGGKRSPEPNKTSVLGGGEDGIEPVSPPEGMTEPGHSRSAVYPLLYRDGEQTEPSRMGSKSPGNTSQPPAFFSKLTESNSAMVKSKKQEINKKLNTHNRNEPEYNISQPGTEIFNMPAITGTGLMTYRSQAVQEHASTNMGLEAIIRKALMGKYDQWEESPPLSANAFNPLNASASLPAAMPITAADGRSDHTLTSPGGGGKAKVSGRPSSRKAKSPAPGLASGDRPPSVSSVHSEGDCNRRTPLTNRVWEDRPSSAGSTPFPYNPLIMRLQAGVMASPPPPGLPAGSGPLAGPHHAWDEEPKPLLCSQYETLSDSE
Induced myeloid leukemia cell differentiation protein Mcl-1, sequence (Q07820 whole entry): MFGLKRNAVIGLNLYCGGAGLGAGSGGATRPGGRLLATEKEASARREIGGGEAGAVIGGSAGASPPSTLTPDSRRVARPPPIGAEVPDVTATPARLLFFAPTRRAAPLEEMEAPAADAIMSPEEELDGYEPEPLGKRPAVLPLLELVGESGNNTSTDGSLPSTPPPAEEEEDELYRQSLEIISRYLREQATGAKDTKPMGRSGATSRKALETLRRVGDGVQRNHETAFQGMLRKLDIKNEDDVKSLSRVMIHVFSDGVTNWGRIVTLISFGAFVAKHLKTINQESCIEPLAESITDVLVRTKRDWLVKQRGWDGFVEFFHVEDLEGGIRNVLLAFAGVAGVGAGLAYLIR
Potassium voltage-gated channel subfamily KQT member 2, sequence (O88943 whole entry W236L): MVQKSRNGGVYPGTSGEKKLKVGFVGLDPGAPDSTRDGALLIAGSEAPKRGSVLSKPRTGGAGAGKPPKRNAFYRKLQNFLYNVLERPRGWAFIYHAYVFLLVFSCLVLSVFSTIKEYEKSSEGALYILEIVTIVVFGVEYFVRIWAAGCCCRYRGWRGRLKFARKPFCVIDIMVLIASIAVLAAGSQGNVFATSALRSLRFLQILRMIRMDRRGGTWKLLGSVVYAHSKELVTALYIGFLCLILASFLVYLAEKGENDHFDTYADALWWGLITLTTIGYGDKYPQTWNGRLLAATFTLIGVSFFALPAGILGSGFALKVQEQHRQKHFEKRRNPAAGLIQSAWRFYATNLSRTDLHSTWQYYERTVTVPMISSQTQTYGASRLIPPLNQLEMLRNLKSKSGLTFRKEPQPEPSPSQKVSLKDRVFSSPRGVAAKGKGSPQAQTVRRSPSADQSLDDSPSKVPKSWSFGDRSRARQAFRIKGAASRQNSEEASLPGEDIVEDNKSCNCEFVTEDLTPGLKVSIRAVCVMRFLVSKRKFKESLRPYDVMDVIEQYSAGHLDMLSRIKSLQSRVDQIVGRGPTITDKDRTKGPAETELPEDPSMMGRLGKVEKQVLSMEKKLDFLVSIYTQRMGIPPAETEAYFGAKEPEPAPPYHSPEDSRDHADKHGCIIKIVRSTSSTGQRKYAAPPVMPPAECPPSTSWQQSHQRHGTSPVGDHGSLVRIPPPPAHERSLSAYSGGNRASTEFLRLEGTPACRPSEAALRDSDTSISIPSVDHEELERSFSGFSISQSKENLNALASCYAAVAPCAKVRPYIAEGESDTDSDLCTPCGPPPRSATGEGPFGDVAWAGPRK
Hepatocyte nuclear factor 4-alpha, sequence (P41235 whole entry, the tested form may be a part): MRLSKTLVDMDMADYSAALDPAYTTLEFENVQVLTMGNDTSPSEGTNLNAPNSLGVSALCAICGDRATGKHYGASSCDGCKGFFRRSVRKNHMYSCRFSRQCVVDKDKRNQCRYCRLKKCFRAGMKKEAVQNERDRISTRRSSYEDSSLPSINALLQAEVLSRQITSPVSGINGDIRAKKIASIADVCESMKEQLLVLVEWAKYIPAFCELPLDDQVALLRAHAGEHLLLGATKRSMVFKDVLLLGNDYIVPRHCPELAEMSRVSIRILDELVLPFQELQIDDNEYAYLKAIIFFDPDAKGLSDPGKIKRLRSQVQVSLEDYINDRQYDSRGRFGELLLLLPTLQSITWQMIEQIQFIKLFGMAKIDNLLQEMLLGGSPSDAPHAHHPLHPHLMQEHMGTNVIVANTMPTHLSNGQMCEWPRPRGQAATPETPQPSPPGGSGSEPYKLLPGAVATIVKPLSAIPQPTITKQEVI

With `Cc1sc2ncnc(SCC(=O)NC(=O)c3cccn3C)c2c1C`, the EC50 in assay [1] was 7.84 µM (active). Also, the IC50 is 6.6 µM (active) in [2] and 3.97 µM (active) in [3].
For `CCc1nnc(NC(=O)c2nc(S(=O)(=O)Cc3cccc(C)c3)ncc2Cl)s1`, the EC50 on Protein RecA is 4.37 µM (active); in [4] it was 16.8 µM (active); in the assay on H4, > 120 µM (not active); in [8], > 120 µM (not active); in assay [11], > 120 µM (not active). The IC50 in assay [5] is 2.82 µM (active); in assay [6], 5.05 µM (active); at Genome polyprotein, > 100 µM (active); in assay [9], 2.4 µM (active). Further, the figures for the half-maximal activity concentration (AC50) in [7], in [10] and in assay [12] were 2.51 µM (active), 6.99 µM (active) and 5.05 µM (active), respectively. In addition, the CC50 in the assay with Vero is 26.6 µM (active).
Regarding `CCCNc1nc(-c2ccccc2)c(C(=O)OCC)cc1C#N`, the EC50 was 26 µM (active) with BJ [13], 8.98 µM (inconclusive) with BJ [14], 4.54 µM (inconclusive) in the assay on BJ [15] and 16.3 µM (active) in [16]. For the same compound, the IC50 in assay [17] is 4.2 µM (active).
Turning to `O=C(Oc1ccc(-c2cnc3ccccc3n2)cc1)c1ccc(Br)o1`, in [18], the IC50 is > 69.5 µM (not active). The EC50 at Estrogen receptor was 6.97 µM (active).
As to `O=C(O)C(C(=O)/C=C/c1ccco1)=C1SCCS1`, the values for the IC50 (against Bcl-2-like protein 1; in assay [19]) were > 109 µM (not active) and 21.9 µM (not active), respectively.

Source of the values: ChEMBL document CHEMBL1201862, “PubChem BioAssay data set” (2004).
